Data reported in US10738045B2, “Pesticidally active heterocyclic derivatives with sulphur and cyclopropyl containing substituents” (SYNGENTA PARTICIPATIONS AG, priority 2015, dated 2020).

How the values were obtained:
Assay in all cases: whole plant or invertebrate
Type in all cases: in vivo
[1] = system: Myzus persicae (Green Peach Aphid); conditions: foliar, 144 h, application rate of 200 ppm, sunflower leaf discs, population of mixed ages, 6 days after infestation
Experimental: Sunflower leaf discs were placed onto agar in a 24-well microtiter plate and sprayed with aqueous test solutions prepared from 10,000 ppm DMSO stock solutions. After drying, the leaf discs were infested with an aphid population of mixed ages. The samples were assessed for mortality 6 days after infestation.

[2] = system: Diabrotica balteata (Corn Root Worm); conditions: 96 h, application rate of 200 ppm, L2 larvae, 4 days after infestation, read-out: effect in at least one of the two categories (mortality or growth inhibition)
Experimental: Maize sprouts placed onto an agar layer in 24-well microtiter plates were treated with aqueous test solutions prepared from 10,000 ppm DMSO stock solutions by spraying. After drying, the plates were infested with L2 larvae (6 to 10 per well). The samples were assessed for mortality and growth inhibition in comparison to untreated samples 4 days after infestation.

[3] = system: Euschistus heros (Neotropical Brown Stink Bug); conditions: in Glycine max, 120 h, application rate of 200 ppm, N2 nymphs, 5 days after infestation, read-out: effect in at least one of the two categories (mortality or growth inhibition)
Experimental: Soybean leaves on agar in 24-well microtiter plates were sprayed with aqueous test solutions prepared from 10,000 ppm DMSO stock solutions. After drying the leaves were infested with N2 nymphs. The samples were assessed for mortality and growth inhibition in comparison to untreated samples 5 days after infestation.

[4] = system: Spodoptera littoralis (Egyptian Cotton Leaf Worm); conditions: foliar, 72 h, application rate of 200 ppm, L1 larvae, 3 days after infestation, read-out: control (mortality, anti-feeding effect or growth inhibition)
Experimental: Cotton leaf discs were placed onto agar in 24-well microtiter plates and sprayed with aqueous test solutions prepared from 10,000 ppm DMSO stock solutions. After drying the leaf discs were infested with five L1 larvae. The samples were assessed for mortality, anti-feeding effect, and growth inhibition in comparison to untreated samples 3 days after infestation.

[5] = system: Plutella xylostella (Diamond Back Moth); conditions: 120 h, application rate of 200 ppm, L2 larvae, 5 days after infestation, read-out: effect in at least one of the two categories (mortality or growth inhibition)
Experimental: 24-well microtiter plates with artificial diet were treated with aqueous test solutions prepared from 10,000 ppm DMSO stock solutions by pipetting. After drying, the plates were infested with L2 larvae (10 to 15 per well). The samples were assessed for mortality and growth inhibition in comparison to untreated samples 5 days after infestation.

[6] = system: Bemisia tabaci (Cotton White Fly); conditions: foliar, 144 h, application rate of 200 ppm, cotton leaf discs, adult white flies, 6 days after incubation
Experimental: Cotton leaf discs were placed on agar in 24-well microtiter plates and sprayed with aqueous test solutions prepared from 10,000 ppm DMSO stock solutions. After drying the leaf discs were infested with adult white flies. The samples were checked for mortality 6 days after incubation.

[7] = system: Frankliniella occidentalis (Western Flower Thrips); conditions: foliar, 168 h, application rate of 200 ppm, sunflower leaf discs, population of mixed ages, 7 days after infestation
Experimental: (§1) Sunflower leaf discs were placed on agar in 24-well microtiter plates and sprayed with aqueous test solutions prepared from 10,000 DMSO stock solutions. After drying the leaf discs were infested with a Frankliniella population of mixed ages. The samples were assessed for mortality 7 days after infestation.

[8] = system: Thrips tabaci (Onion Thrips); conditions: foliar, 144 h, application rate of 200 ppm, sunflower leaf discs, population of mixed ages, 6 days after infestation
Experimental: as §1, with “10,000 ppm” for “10,000”, “thrips” for “Frankliniella”, “6” for “7”

[9] = system: Spodoptera littoralis (Egyptian Cotton Leaf Worm); conditions: 144 h, test rate of 12.5 ppm, lettuce grown on treated agar, 6 days after infestation, read-out: effect in at least one of the three categories (mortality, anti-feeding, or growth inhibition)
From the text: Test compounds were applied by pipette from 10,000 ppm DMSO stock solutions into 24-well plates and mixed with agar. Lettuce seeds were placed onto the agar and the multi well plate was closed by another plate which contained also agar. After 7 days the compound was absorbed by the roots and the lettuce grew into the lid plate. The lettuce leaves were then cut off into the lid plate. Spodoptera eggs were pipetted through a plastic stencil onto a humid gel blotting paper and the lid plate was closed with it. The samples were assessed for mortality, anti-feedant effect and growth inhibition in comparison to untreated samples 6 days after infestation.

[10] = system: Tetranychus urticae (Two-Spotted Spider Mite); conditions: foliar, 192 h, application rate of 200 ppm, bean leaf discs, mixed population (mobile stages), 8 days after infestation
Experimental: Bean leaf discs on agar in 24-well microtiter plates were sprayed with aqueous test solutions prepared from 10,000 ppm DMSO stock solutions. After drying the leaf discs were infested with a mite population of mixed ages. The samples were assessed for mortality on mixed population (mobile stages) 8 days after infestation.

[11] = system: Myzus persicae (Green Peach Aphid); conditions: 144 h, test rate of 24 ppm, roots of pea seedlings in test solution, 6 days
Experimental: Roots of pea seedlings infested with an aphid population of mixed ages were placed directly into aqueous test solutions prepared from 10,000 DMSO stock solutions. The samples were assessed for mortality 6 days after placing seedlings into test solutions.

CCS(=O)(=O)c1cc(-c2cc(C(F)(F)F)ccn2)cnc1-c1nc2cc(C(F)(F)F)n(C3CC3)c(=O)c2n1C [Compound A7, 5-cyclopropyl-2-[3-ethylsulfonyl-5-[4-(trifluoromethyl)-2-pyridyl]-2-pyridyl]-3-methyl-6-(trifluoromethyl)imidazo[4,5-c]pyridin-4-one]
≥ 80%: mortality at 200 ppm [1] | percent effect (mortality or growth inhibition) at 200 ppm [2] | percent effect (mortality or growth inhibition) at 200 ppm [3] | percent control (mortality, anti-feedant effect or growth inhibition) at 200 ppm [4] | percent effect (mortality or growth inhibition) at 200 ppm [5] | mortality at 200 ppm [6] | mortality at 200 ppm [7]

CCS(=O)(=O)c1cc(Br)cnc1-c1nc2cc(C(F)(F)F)n(C3CC3)c(=O)c2n1C [Compound A5, 2-(5-bromo-3-ethylsulfonyl-2-pyridyl)-5-cyclopropyl-3-methyl-6-(trifluoromethyl)imidazo[4,5-c]pyridin-4-one]
≥ 80%: mortality at 200 ppm [1] | percent effect (mortality or growth inhibition) at 200 ppm [2] | mortality at 200 ppm [8] | percent effect (mortality or growth inhibition) at 200 ppm [3] | percent control (mortality, anti-feedant effect or growth inhibition) at 200 ppm [4] | percent effect (mortality or growth inhibition) at 200 ppm [5] | mortality at 200 ppm [6] | percent effect (mortality, anti-feeding or growth inhibition) at 12.5 ppm [9]

CCS(=O)(=O)c1cc(C(F)(F)F)cnc1-c1nc2cc(C(F)(F)F)n(C3CC3)c(=O)c2n1C [Compound A1, 5-cyclopropyl-2-[3-ethylsulfonyl-5-(trifluoromethyl)-2-pyridyl]-3-methyl-6-(trifluoromethyl) imidazo[4,5-c]pyridin-4-one]
≥ 80%: mortality at 200 ppm [1] | percent effect (mortality or growth inhibition) at 200 ppm [2] | mortality at 200 ppm [8] | percent effect (mortality or growth inhibition) at 200 ppm [3] | percent control (mortality, anti-feedant effect or growth inhibition) at 200 ppm [4] | percent effect (mortality or growth inhibition) at 200 ppm [5] | mortality at 200 ppm [6] | mortality at 200 ppm [7] | percent effect (mortality, anti-feeding or growth inhibition) at 12.5 ppm [9]

CCS(=O)(=O)c1cc(-n2ccc(C(F)(F)F)n2)cnc1-c1nc2cc(C(F)(F)F)n(C3CC3)c(=O)c2n1C [Compound A3, 5-cyclopropyl-2-[3-ethylsulfonyl-5-[3-(trifluoromethyl)pyrazol-1-yl]-2-pyridyl]-3-methyl-6-(trifluoromethyl)imidazo[4,5-c]pyridin-4-one]
≥ 80%: percent effect (mortality or growth inhibition) at 200 ppm [2] | percent effect (mortality or growth inhibition) at 200 ppm [3] | percent control (mortality, anti-feedant effect or growth inhibition) at 200 ppm [4] | percent effect (mortality or growth inhibition) at 200 ppm [5]

CCS(=O)(=O)c1cc(-n2cnc(Cl)n2)cnc1-c1nc2cc(C(F)(F)F)n(C3CC3)c(=O)c2n1C [Compound A34, 2-[5-(3-chloro-1,2,4-triazol-1-yl)-3-ethylsulfonyl-2-pyridyl]-5-cyclopropyl-3-methyl-6-(trifluoromethyl)imidazo[4,5-c]pyridin-4-one]
≥ 80%: mortality at 200 ppm [1] | percent effect (mortality or growth inhibition) at 200 ppm [2] | percent effect (mortality or growth inhibition) at 200 ppm [3] | percent control (mortality, anti-feedant effect or growth inhibition) at 200 ppm [4] | percent effect (mortality or growth inhibition) at 200 ppm [5] | mortality at 200 ppm [7] | percent effect (mortality, anti-feeding or growth inhibition) at 12.5 ppm [9]

CCS(=O)(=O)c1cc(-c2cc(F)cc(F)c2)cnc1-c1nc2cc(C(F)(F)F)n(C3CC3)c(=O)c2n1C [Compound A6, 5-cyclopropyl-2-[5-(3,5-difluorophenyl)-3-ethylsulfonyl-2-pyridyl]-3-methyl-6-(trifluoromethyl)imidazo[4,5-c]pyridin-4-one]
≥ 80%: mortality at 200 ppm [1] | percent effect (mortality or growth inhibition) at 200 ppm [2] | mortality at 200 ppm [8] | percent effect (mortality or growth inhibition) at 200 ppm [3] | percent control (mortality, anti-feedant effect or growth inhibition) at 200 ppm [4] | percent effect (mortality or growth inhibition) at 200 ppm [5] | mortality at 200 ppm [6] | mortality at 200 ppm [7] | percent effect (mortality, anti-feeding or growth inhibition) at 12.5 ppm [9]

CCS(=O)(=O)c1cc(C2(C#N)CC2)cnc1-c1nc2cc(C(F)(F)F)n(C3CC3)c(=O)c2n1C [Compound A31, 1-[6-[5-cyclopropyl-3-methyl-4-oxo-6-(trifluoromethyl)imidazo[4,5-c]pyridin-2-yl]-5-ethylsulfonyl-3-pyridyl]cyclopropanecarbonitrile]
≥ 80%: mortality at 200 ppm [1] | percent effect (mortality or growth inhibition) at 200 ppm [2] | mortality at 200 ppm [8] | percent effect (mortality or growth inhibition) at 200 ppm [3] | mortality at 200 ppm [10] | percent control (mortality, anti-feedant effect or growth inhibition) at 200 ppm [4] | mortality at 24 ppm [11] | percent effect (mortality or growth inhibition) at 200 ppm [5] | mortality at 200 ppm [6] | mortality at 200 ppm [7] | percent effect (mortality, anti-feeding or growth inhibition) at 12.5 ppm [9]
